Source: patent publication US10710978B2, “STK4 inhibitors for treatment of hematologic malignancies” (Dana-Farber Cancer Institute, Inc., priority 2015, dated 2020)
Read-outs that look alike come from different tables or passages of the source.

Experiments:
Experiment in all cases: KiNativ assay
Format in all cases: binding
Settings in all cases: H929 live cell
[1] = target: ILK (Homo sapiens (Human), UniProt Q13418)
Protocol: (§1) Biochemical IC50s of the compounds of the present disclosure against various kinases were measured in a KiNativ assay. Compounds were screened in duplicate at 10 μM in H929 live cell. IC50 was measured via Mass spectroscopy (MS).

[2] = target: CHK2 (Homo sapiens (Human), UniProt O96017)
Protocol: as §1

[3] = target: EphB2 (Homo sapiens (Human), UniProt P29323)
Protocol: as §1

[4] = system: PI4KA, PI4KAP2
Protocol: as §1

[5] = target: LOK (Homo sapiens (Human), UniProt O94804)
Protocol: as §1

[6] = target: MAP2K3 (Homo sapiens (Human), UniProt P46734)
Protocol: as §1

[7] = target: PIP4K2C (Homo sapiens (Human), UniProt Q8TBX8)
Protocol: as §1

[8] = target: CHK1 (Homo sapiens (Human), UniProt O14757)
Protocol: as §1

[9] = target: MAP3K1 (Homo sapiens (Human), UniProt Q13233)
Protocol: as §1

[10] = target: PIK3C3 (Homo sapiens (Human), UniProt Q8NEB9)
Protocol: as §1

[11] = target: TYK2 domain2 (Homo sapiens (Human), UniProt P29597)
Protocol: as §1

[12] = target: ATR (Homo sapiens (Human), UniProt Q13535)
Protocol: as §1

[13] = target: MAP2K1 (Homo sapiens (Human), UniProt Q02750)
Protocol: as §1

[14] = target: OSR1 (Homo sapiens (Human), UniProt O95747)
Protocol: as §1

[15] = target: AurA (Homo sapiens (Human), UniProt O14965)
Protocol: as §1

[16] = target: MAP2K6 (Homo sapiens (Human), UniProt P52564)
Protocol: as §1

[17] = target: NEK8 (Homo sapiens (Human), UniProt Q86SG6)
Protocol: as §1

[18] = target: JAK1 domain2 (Homo sapiens (Human), UniProt P23458)
Protocol: as §1

[19] = target: PHKg2 (Homo sapiens (Human), UniProt P15735)
Protocol: as §1

[20] = target: MAP2K7 (Homo sapiens (Human), UniProt O14733)
Protocol: as §1

[21] = target: MARK4 (Homo sapiens (Human), UniProt Q96L34)
Protocol: as §1

[22] = target: NEK1 (Homo sapiens (Human), UniProt Q96PY6)
Protocol: as §1

[23] = target: GSK3A (Homo sapiens (Human), UniProt P49840)
Protocol: as §1

[24] = target: NDR1 (Homo sapiens (Human), UniProt Q15208)
Protocol: as §1

[25] = target: MAST3 (Homo sapiens (Human), UniProt O60307)
Protocol: as §1

[26] = target: PI4KB (Homo sapiens (Human), UniProt Q9UBF8)
Protocol: as §1

[27] = system: JNK1, JNK2, JNK3
Protocol: as §1

[28] = target: IRAK1 (Homo sapiens (Human), UniProt P51617)
Protocol: as §1

[29] = target: NDR2 (Homo sapiens (Human), UniProt Q9Y2H1)
Protocol: as §1

[30] = target: ZAK (Homo sapiens (Human), UniProt Q9NYL2)
Protocol: as §1

[31] = target: KHS1 (Homo sapiens (Human), UniProt Q9Y4K4)
Protocol: as §1

[32] = system: RSK1 domain1, RSK2 domain1, RSK3 domain1
Protocol: as §1

[33] = system: MAPKAPK2, MAPKAPK3
Protocol: as §1

[34] = range class, read-out: % inhibition

KHS1, sequence (Q9Y4K4 whole entry): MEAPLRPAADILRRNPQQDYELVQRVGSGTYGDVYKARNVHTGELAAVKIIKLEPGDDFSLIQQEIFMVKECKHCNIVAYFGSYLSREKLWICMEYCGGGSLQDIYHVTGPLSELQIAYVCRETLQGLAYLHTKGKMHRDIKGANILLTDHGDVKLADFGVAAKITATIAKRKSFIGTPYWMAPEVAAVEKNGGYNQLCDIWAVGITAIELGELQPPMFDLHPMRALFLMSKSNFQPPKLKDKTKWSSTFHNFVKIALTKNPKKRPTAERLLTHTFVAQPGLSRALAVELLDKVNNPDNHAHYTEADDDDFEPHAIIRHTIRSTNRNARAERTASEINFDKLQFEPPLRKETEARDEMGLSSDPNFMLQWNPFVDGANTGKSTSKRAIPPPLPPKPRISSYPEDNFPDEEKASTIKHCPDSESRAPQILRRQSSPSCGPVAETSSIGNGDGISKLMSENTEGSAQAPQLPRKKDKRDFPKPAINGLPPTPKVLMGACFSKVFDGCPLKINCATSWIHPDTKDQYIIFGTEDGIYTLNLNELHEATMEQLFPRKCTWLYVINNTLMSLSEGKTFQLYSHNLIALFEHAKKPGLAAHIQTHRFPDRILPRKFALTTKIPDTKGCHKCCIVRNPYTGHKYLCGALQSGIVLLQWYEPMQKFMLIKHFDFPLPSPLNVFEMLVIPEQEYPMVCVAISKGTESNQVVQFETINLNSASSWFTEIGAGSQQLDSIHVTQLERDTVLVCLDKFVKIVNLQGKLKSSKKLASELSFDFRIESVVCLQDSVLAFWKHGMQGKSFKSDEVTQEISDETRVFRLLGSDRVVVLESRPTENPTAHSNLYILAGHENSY
MAP2K1, sequence (Q02750 whole entry): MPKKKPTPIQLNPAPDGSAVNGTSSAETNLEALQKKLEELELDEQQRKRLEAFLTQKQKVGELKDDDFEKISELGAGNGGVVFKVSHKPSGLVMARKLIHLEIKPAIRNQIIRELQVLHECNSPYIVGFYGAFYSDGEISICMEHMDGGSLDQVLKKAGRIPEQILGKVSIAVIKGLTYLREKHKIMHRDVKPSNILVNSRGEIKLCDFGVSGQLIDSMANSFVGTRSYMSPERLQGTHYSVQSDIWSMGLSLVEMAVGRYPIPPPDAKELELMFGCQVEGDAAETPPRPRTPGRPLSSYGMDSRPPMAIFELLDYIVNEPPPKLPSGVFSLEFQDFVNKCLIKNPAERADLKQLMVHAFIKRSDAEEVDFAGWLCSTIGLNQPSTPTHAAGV
OSR1, sequence (O95747 whole entry): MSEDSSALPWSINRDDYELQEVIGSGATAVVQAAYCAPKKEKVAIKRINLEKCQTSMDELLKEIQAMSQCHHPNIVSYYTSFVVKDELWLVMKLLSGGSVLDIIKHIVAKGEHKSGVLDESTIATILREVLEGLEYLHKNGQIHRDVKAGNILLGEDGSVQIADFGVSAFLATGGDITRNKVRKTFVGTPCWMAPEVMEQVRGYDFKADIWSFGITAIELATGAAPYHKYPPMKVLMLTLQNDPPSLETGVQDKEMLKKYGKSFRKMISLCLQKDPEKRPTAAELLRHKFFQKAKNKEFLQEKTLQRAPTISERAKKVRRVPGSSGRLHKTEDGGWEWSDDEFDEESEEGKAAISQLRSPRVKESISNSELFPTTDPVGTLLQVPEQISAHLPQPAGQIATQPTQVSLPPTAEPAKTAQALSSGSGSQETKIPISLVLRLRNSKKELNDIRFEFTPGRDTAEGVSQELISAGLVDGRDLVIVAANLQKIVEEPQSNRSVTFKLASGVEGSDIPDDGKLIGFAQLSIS
MAP2K6, sequence (P52564 whole entry): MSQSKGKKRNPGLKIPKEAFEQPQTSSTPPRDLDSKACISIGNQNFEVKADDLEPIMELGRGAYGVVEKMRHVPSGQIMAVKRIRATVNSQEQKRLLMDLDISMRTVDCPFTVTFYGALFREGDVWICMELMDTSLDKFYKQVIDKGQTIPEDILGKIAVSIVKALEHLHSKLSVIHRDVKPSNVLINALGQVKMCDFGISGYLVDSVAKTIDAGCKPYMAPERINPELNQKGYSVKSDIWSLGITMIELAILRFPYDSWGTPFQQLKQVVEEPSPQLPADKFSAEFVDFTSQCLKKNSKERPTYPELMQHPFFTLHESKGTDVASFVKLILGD
TYK2 domain2, sequence (P29597 whole entry, the tested form may be a part): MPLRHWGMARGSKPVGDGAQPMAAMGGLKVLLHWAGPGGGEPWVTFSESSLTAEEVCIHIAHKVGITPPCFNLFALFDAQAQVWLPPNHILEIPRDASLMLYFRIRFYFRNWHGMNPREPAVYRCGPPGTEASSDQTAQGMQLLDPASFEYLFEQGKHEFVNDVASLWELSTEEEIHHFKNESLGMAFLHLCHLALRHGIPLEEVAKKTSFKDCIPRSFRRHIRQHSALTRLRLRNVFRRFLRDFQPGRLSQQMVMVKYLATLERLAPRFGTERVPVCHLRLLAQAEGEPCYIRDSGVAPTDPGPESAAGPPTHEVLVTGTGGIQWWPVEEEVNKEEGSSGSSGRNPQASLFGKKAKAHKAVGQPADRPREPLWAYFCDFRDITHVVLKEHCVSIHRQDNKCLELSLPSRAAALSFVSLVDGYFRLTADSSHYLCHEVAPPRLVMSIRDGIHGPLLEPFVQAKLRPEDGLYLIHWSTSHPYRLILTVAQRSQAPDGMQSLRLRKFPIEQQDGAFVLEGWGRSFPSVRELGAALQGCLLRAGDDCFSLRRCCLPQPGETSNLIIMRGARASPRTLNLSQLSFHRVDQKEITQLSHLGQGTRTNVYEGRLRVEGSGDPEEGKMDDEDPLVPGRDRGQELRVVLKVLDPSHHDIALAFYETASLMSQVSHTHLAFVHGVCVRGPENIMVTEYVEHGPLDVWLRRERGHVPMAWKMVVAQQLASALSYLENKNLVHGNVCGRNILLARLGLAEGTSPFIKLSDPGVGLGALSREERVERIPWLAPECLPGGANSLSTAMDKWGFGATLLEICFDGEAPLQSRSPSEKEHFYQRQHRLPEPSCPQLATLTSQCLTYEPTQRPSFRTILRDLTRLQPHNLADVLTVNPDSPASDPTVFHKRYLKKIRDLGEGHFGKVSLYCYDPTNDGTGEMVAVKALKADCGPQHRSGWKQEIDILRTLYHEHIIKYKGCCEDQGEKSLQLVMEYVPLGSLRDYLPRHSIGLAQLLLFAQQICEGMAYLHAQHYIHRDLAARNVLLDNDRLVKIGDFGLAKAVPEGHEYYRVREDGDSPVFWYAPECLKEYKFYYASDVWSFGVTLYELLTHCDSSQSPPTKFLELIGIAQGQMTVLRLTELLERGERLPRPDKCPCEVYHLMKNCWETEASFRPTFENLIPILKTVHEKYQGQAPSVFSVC
MAST3, sequence (O60307 whole entry): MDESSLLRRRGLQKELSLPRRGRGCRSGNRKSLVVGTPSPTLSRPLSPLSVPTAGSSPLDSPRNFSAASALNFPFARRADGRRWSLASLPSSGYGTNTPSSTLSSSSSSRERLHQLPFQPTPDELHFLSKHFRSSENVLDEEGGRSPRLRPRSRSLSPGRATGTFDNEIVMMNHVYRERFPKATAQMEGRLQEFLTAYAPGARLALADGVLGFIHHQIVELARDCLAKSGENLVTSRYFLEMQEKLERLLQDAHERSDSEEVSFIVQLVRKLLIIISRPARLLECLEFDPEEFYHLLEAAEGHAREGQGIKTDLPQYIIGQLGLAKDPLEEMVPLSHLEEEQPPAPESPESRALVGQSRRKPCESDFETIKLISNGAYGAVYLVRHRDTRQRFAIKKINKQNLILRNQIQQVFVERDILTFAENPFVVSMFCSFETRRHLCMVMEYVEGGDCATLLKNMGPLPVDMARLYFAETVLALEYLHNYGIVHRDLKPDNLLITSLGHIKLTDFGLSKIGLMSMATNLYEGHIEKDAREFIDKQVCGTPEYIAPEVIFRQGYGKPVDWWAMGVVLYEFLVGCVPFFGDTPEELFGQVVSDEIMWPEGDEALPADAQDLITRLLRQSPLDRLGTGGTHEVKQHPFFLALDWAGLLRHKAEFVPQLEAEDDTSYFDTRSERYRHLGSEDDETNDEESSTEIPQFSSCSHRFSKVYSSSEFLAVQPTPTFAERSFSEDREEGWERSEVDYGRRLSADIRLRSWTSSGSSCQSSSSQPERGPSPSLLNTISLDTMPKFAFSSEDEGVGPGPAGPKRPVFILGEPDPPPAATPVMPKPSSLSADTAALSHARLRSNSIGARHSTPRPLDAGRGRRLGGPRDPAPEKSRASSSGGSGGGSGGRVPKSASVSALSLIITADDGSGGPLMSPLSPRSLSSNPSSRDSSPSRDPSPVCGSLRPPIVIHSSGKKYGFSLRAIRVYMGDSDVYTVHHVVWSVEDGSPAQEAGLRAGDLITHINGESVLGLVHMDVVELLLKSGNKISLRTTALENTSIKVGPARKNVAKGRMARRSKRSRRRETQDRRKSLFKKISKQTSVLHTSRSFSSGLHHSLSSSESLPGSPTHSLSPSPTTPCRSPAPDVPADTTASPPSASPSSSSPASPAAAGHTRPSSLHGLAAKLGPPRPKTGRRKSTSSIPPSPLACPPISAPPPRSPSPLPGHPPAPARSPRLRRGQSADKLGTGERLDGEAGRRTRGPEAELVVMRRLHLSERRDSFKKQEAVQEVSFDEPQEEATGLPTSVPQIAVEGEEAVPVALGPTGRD
NDR2, sequence (Q9Y2H1 whole entry): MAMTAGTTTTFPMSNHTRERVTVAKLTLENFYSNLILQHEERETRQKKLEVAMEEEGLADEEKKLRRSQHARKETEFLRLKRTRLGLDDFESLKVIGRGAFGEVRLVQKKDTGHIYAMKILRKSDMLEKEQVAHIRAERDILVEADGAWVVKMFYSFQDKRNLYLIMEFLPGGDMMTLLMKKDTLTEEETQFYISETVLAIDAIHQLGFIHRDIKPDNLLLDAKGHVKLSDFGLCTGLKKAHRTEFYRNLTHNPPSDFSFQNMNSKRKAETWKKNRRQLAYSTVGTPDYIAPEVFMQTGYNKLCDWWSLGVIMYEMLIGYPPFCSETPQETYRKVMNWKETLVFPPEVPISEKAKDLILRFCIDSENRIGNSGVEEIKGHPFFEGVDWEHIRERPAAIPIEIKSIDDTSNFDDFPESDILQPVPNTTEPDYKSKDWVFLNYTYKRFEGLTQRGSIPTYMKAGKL

## Nc1ncc(-c2ccc(NS(=O)(=O)C3CC3)cc2OC2CCCCC2)cc1-c1ccc2c(c1)CCNC2=O [Compound I-65, N-(4-(6-amino-5-(1-oxo-1,2,3,4-tetrahydroisoquinolin-6-yl)pyridin-3-yl)-3-(cyclohexyloxy)phenyl) cyclopropanesulfonamide]
[1]; [34]
  inhibition at 10 µM: 0%
[1]; read-out: inhibition (10 μM)
  inhibition at 10 µM: -35%
[2]; [34]
  inhibition at 10 µM: 0%
[2]; read-out: inhibition (10 μM)
  inhibition at 10 µM: 11.2%
[3]; [34]
  inhibition at 10 µM: 0%
[3]; read-out: inhibition (10 μM)
  inhibition at 10 µM: 20.3%
[4]; 10 μM, range class
  % inhibition: 0.0%
[4]
  inhibition (10 μM): −2.9%
[5]; [34]
  inhibition at 10 µM: > 90%
[5]; read-out: inhibition (10 μM)
  inhibition at 10 µM: 98.7%
[6]; [34]
  inhibition at 10 µM: 0%
[6]; read-out: inhibition (10 μM)
  inhibition at 10 µM: -6.1%
[7]; [34]
  inhibition at 10 µM: > 90%
[7]; read-out: inhibition (10 μM)
  inhibition at 10 µM: 90.2%
[8]; [34]
  inhibition at 10 µM: 0%
[8]; read-out: inhibition (10 μM)
  inhibition at 10 µM: -16%
[9]; [34]
  inhibition at 10 µM: 35 to 40%
[9]; read-out: inhibition (10 μM)
  inhibition at 10 µM: 48.5%
[10]; [34]
  inhibition at 10 µM: 0%
[10]; read-out: inhibition (10 μM)
  inhibition at 10 µM: -15%
[11]; [34]
  inhibition at 10 µM: 0%
[11]; read-out: inhibition (10 μM)
  inhibition at 10 µM: -8.4%
[12]; [34]
  inhibition at 10 µM: 0%
[12]; read-out: inhibition (10 μM)
  inhibition at 10 µM: 28.1%
[13]; [34]
  inhibition at 10 µM: 0%
[13]; read-out: inhibition (10 μM)
  inhibition at 10 µM: 21.2%
[14]; [34]
  inhibition at 10 µM: 0%
[14]; read-out: inhibition (10 μM)
  inhibition at 10 µM: 26.8%
[15]
  inhibition (10 μM): 40.2%
[15]; [34]
  inhibition at 10 µM: 35 to 40%
[15]; read-out: inhibition (10 μM)
  inhibition at 10 µM: 45.4%
[16]; [34]
  inhibition at 10 µM: 0%
[16]; read-out: inhibition (10 μM)
  inhibition at 10 µM: -15%
[17]; [34]
  inhibition at 10 µM: 0%
[17]; read-out: inhibition (10 μM)
  inhibition at 10 µM: -1.7%
[18]; [34]
  inhibition at 10 µM: 0%
[18]; read-out: inhibition (10 μM)
  inhibition at 10 µM: 10.1%
[19]; [34]
  inhibition at 10 µM: 0%
[19]; read-out: inhibition (10 μM)
  inhibition at 10 µM: -64%
[20]; [34]
  inhibition at 10 µM: 0%
[20]; read-out: inhibition (10 μM)
  inhibition at 10 µM: 3.3%
[21]; [34]
  inhibition at 10 µM: 0%
[21]; read-out: inhibition (10 μM)
  inhibition at 10 µM: -1.1%
[22]; [34]
  inhibition at 10 µM: 0%
[22]; read-out: inhibition (10 μM)
  inhibition at 10 µM: 9.3%
[23]; [34]
  inhibition at 10 µM: 75 to 90%
[23]; read-out: inhibition (10 μM)
  inhibition at 10 µM: 86%
[24]; [34]
  inhibition at 10 µM: 0%
[24]; read-out: inhibition (10 μM)
  inhibition at 10 µM: -14.5%
[25]; [34]
  inhibition at 10 µM: 0%
[25]; read-out: inhibition (10 μM)
  inhibition at 10 µM: -7.5%
[26]; [34]
  inhibition at 10 µM: 0%
[26]; read-out: inhibition (10 μM)
  inhibition at 10 µM: 8.6%
[27]; 10 μM, range class
  % inhibition: 0.0%
[27]
  inhibition (10 μM): 6.4%
[28]; [34]
  inhibition at 10 µM: 0%
[28]; read-out: inhibition (10 μM)
  inhibition at 10 µM: 27.8%
[29]; [34]
  inhibition at 10 µM: 0%
[29]; read-out: inhibition (10 μM)
  inhibition at 10 µM: -8.7%
[30]; [34]
  inhibition at 10 µM: 35 to 40%
[30]; read-out: inhibition (10 μM)
  inhibition at 10 µM: 36.2%
[31]; [34]
  inhibition at 10 µM: 50 to 75%
[31]; read-out: inhibition (10 μM)
  inhibition at 10 µM: 73.3%
[32]; 10 μM, range class
  % inhibition: 50-75%
[32]
  inhibition (10 μM): 68.4%
[33]; 10 μM, range class
  % inhibition: 0.0%
[33]
  inhibition (10 μM): −52.2%

## Nc1ncc(-c2cccc3ncsc23)cc1-c1ccc2c(c1)CCNC2=O [Compound I-13, 6-(2-amino-5-(benzo[d]thiazol-7-yl)pyridin-3-yl)-3,4-dihydroisoquinolin-1(2H)-one]
[1]; read-out: % inhibition (range)
  inhibition at 10 µM: 0%
[1]; read-out: inhibition (10 μM)
  inhibition at 10 µM: 1.6%
[2]; read-out: % inhibition (range)
  inhibition at 10 µM: 0%
[2]; read-out: inhibition (10 μM)
  inhibition at 10 µM: 19.7%
[3]; read-out: % inhibition (range)
  inhibition at 10 µM: 0%
[3]; read-out: inhibition (10 μM)
  inhibition at 10 µM: 22.1%
[4]; 10 μM
  % inhibition (range): 0.0%
[4]
  inhibition (10 μM): −16.1%
[5]; read-out: % inhibition (range)
  inhibition at 10 µM: 50 to 75%
[5]; read-out: inhibition (10 μM)
  inhibition at 10 µM: 61.5%
[6]; read-out: % inhibition (range)
  inhibition at 10 µM: 0%
[6]; read-out: inhibition (10 μM)
  inhibition at 10 µM: 1.1%
[7]; read-out: % inhibition (range)
  inhibition at 10 µM: 35 to 50%
[7]; read-out: inhibition (10 μM)
  inhibition at 10 µM: 42%
[8]; read-out: % inhibition (range)
  inhibition at 10 µM: 0%
[8]; read-out: inhibition (10 μM)
  inhibition at 10 µM: -8.9%
[9]; read-out: % inhibition (range)
  inhibition at 10 µM: > 90%
[9]; read-out: inhibition (10 μM)
  inhibition at 10 µM: 90.2%
[10]; read-out: % inhibition (range)
  inhibition at 10 µM: 0%
[10]; read-out: inhibition (10 μM)
  inhibition at 10 µM: 24.8%
[11]; read-out: % inhibition (range)
  inhibition at 10 µM: 0%
[11]; read-out: inhibition (10 μM)
  inhibition at 10 µM: 0.6%
[12]; read-out: % inhibition (range)
  inhibition at 10 µM: 0%
[12]; read-out: inhibition (10 μM)
  inhibition at 10 µM: -16.1%
[13]; read-out: % inhibition (range)
  inhibition at 10 µM: 0%
[13]; read-out: inhibition (10 μM)
  inhibition at 10 µM: -27.4%
[14]; read-out: % inhibition (range)
  inhibition at 10 µM: 0%
[14]; read-out: inhibition (10 μM)
  inhibition at 10 µM: 1.4%
[15]
  inhibition (10 μM): 14.7%
[15]; read-out: % inhibition (range)
  inhibition at 10 µM: 0%
[15]; read-out: inhibition (10 μM)
  inhibition at 10 µM: 17.4%
[16]; read-out: % inhibition (range)
  inhibition at 10 µM: 0%
[16]; read-out: inhibition (10 μM)
  inhibition at 10 µM: 4.3%
[17]; read-out: % inhibition (range)
  inhibition at 10 µM: 0%
[17]; read-out: inhibition (10 μM)
  inhibition at 10 µM: 10.6%
[18]; read-out: % inhibition (range)
  inhibition at 10 µM: 0%
[18]; read-out: inhibition (10 μM)
  inhibition at 10 µM: -16%
[19]; read-out: % inhibition (range)
  inhibition at 10 µM: 0%
[19]; read-out: inhibition (10 μM)
  inhibition at 10 µM: -27.5%
[20]; read-out: % inhibition (range)
  inhibition at 10 µM: 0%
[20]; read-out: inhibition (10 μM)
  inhibition at 10 µM: 15.1%
[21]; read-out: inhibition (10 μM)
  inhibition at 10 µM: 39.8%
[22]; read-out: % inhibition (range)
  inhibition at 10 µM: 0%
[22]; read-out: inhibition (10 μM)
  inhibition at 10 µM: 6.2%
[23]; read-out: % inhibition (range)
  inhibition at 10 µM: > 90%
[23]; read-out: inhibition (10 μM)
  inhibition at 10 µM: 91.6%
[24]; read-out: % inhibition (range)
  inhibition at 10 µM: 0%
[24]; read-out: inhibition (10 μM)
  inhibition at 10 µM: 13%
[25]; read-out: % inhibition (range)
  inhibition at 10 µM: 0%
[25]; read-out: inhibition (10 μM)
  inhibition at 10 µM: 22%
[26]; read-out: % inhibition (range)
  inhibition at 10 µM: 0%
[26]; read-out: inhibition (10 μM)
  inhibition at 10 µM: 34.8%
[27]; 10 μM
  % inhibition (range): 0.0%
[27]
  inhibition (10 μM): 6.0%
[28]; read-out: % inhibition (range)
  inhibition at 10 µM: 0%
[28]; read-out: inhibition (10 μM)
  inhibition at 10 µM: 28.5%
[29]; read-out: % inhibition (range)
  inhibition at 10 µM: 0%
[29]; read-out: inhibition (10 μM)
  inhibition at 10 µM: 4%
[30]; read-out: % inhibition (range)
  inhibition at 10 µM: 35 to 50%
[30]; read-out: inhibition (10 μM)
  inhibition at 10 µM: 44.9%
[31]; read-out: % inhibition (range)
  inhibition at 10 µM: 35 to 50%
[31]; read-out: inhibition (10 μM)
  inhibition at 10 µM: 47.7%
[32]; 10 μM
  % inhibition (range): 0.0%
[32]
  inhibition (10 μM): 13.1%
[33]; 10 μM
  % inhibition (range): 0.0%
[33]
  inhibition (10 μM): 2.5%
